Measured values published in ChEMBL document CHEMBL1201862, “PubChem BioAssay data set” (2004).
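In this assay, cells in 96-well plates receive the compound at five concentrations for 48 hours. Endpoints are linearly interpolated between the surrounding concentrations. The concentration for 50% growth inhibition is given as GI50.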 Active and inactive are the calls of the source. No stated cut-off is given here; in the data, active = GI50 up to about 1.1 µM and inactive = higher.

Legend:
Experiment in all cases: NCI anticancer screen, dose series, 48 h
HCC 2998 = tested on: HCC 2998
HCT-116 = tested on: HCT-116
HOP-62 = tested on: HOP-62
IGROV-1 = tested on: IGROV-1
KM12 = tested on: KM12
LOX IMVI = tested on: LOX IMVI
Malme-3M = tested on: Malme-3M
NCI-H23 = tested on: NCI-H23
OVCAR-3 = tested on: OVCAR-3
OVCAR-4 = tested on: OVCAR-4
OVCAR-5 = tested on: OVCAR-5
OVCAR-8 = tested on: OVCAR-8
SK-MEL-28 = tested on: SK-MEL-28
SN12C = tested on: SN12C
SNB-75 = tested on: SNB-75
SK-MEL-2 = tested on: SK-MEL-2

Measured: GI50

CC(=O)N1CCC(=O)/C(=C/c2ccccc2)C1
inactive: HCC 2998 33.1 µM | HCT-116 18.1 µM | HOP-62 89.3 µM | IGROV-1 19.8 µM | KM12 24.3 µM | LOX IMVI 16.1 µM | Malme-3M 91.2 µM | NCI-H23 32.4 µM | OVCAR-3 33.3 µM | OVCAR-4 19.3 µM | OVCAR-5 > 100 µM | OVCAR-8 21.2 µM | SK-MEL-28 18 µM | SN12C 18.2 µM | SNB-75 37.1 µM

CC1=C(C(=O)Nc2ccccc2)C(c2ccc(Cl)c(Cl)c2)C(C(=O)Nc2ccccc2)=C(C)N1
inactive: HCT-116 10.4 µM | HOP-62 14.5 µM | IGROV-1 14.5 µM | KM12 13 µM | LOX IMVI 14.2 µM | Malme-3M 12.7 µM | NCI-H23 12.5 µM | OVCAR-3 11.7 µM | OVCAR-4 9.75 µM | OVCAR-5 18.3 µM | OVCAR-8 13.7 µM | SK-MEL-28 12.8 µM | SN12C 14.9 µM | SNB-75 14.2 µM

CC(C)C(=O)/C=C/c1ccccc1
inactive: HCC 2998 > 100 µM | HCT-116 67.3 µM | IGROV-1 > 100 µM | KM12 69.7 µM | LOX IMVI 83.6 µM | NCI-H23 63.8 µM | OVCAR-3 31 µM | OVCAR-4 > 100 µM | OVCAR-5 > 100 µM | SK-MEL-28 > 100 µM | SK-MEL-2 > 100 µM | SN12C 79.3 µM | SNB-75 > 100 µM

CCCc1ccc(/N=C\c2cc(OC)c(OC)c(OC)c2)cc1
inactive: HCT-116 > 63.4 µM | HOP-62 > 100 µM | IGROV-1 > 100 µM | KM12 > 100 µM | LOX IMVI > 52.1 µM | Malme-3M > 100 µM | NCI-H23 > 100 µM | OVCAR-3 > 100 µM | OVCAR-4 > 100 µM | OVCAR-5 > 100 µM | OVCAR-8 > 100 µM | SK-MEL-28 > 100 µM | SK-MEL-2 > 100 µM | SN12C > 100 µM | SNB-75 > 100 µM

COC(=O)[C@@H]1Cc2c([nH]c3ccccc23)[C@H](c2ccccc2)N1
inactive: HCC 2998 31.2 µM | HCT-116 29.4 µM | IGROV-1 22.8 µM | KM12 36.6 µM | LOX IMVI 38.9 µM | Malme-3M 94 µM | NCI-H23 54.1 µM | OVCAR-3 31.6 µM | OVCAR-4 43.6 µM | OVCAR-5 > 100 µM | OVCAR-8 41.3 µM | SK-MEL-28 85.1 µM | SK-MEL-2 32.4 µM | SN12C 28.2 µM | SNB-75 19.5 µM

CN1COc2c(n(C)c(=O)[nH]c2=O)C1
inactive: HCC 2998 > 100 µM | HCT-116 57.5 µM | HOP-62 > 100 µM | IGROV-1 > 100 µM | KM12 > 100 µM | Malme-3M > 100 µM | NCI-H23 > 100 µM | OVCAR-3 > 100 µM | OVCAR-4 > 100 µM | OVCAR-5 > 100 µM | OVCAR-8 > 95.7 µM | SK-MEL-28 > 100 µM | SK-MEL-2 > 100 µM | SN12C > 100 µM | SNB-75 > 100 µM

Cc1cc(Cl)ccc1NC(=O)C(=O)C(C(=O)c1ccccc1)C1OC(=O)c2ccccc21 (centres undefined)
inactive: HCC 2998 > 100 µM | HCT-116 > 100 µM | HOP-62 > 100 µM | IGROV-1 > 100 µM | KM12 > 100 µM | LOX IMVI > 100 µM | Malme-3M > 100 µM | NCI-H23 > 100 µM | OVCAR-4 > 100 µM | OVCAR-5 > 100 µM | OVCAR-8 > 100 µM | SK-MEL-28 > 100 µM | SK-MEL-2 > 100 µM | SN12C > 100 µM | SNB-75 > 100 µM

O=C(/N=N/C(=O)OCc1ccccc1)OCc1ccccc1
inactive: HCC 2998 > 100 µM | HCT-116 > 100 µM | HOP-62 > 100 µM | IGROV-1 > 100 µM | KM12 88.3 µM | LOX IMVI > 100 µM | Malme-3M > 100 µM | NCI-H23 99.8 µM | OVCAR-3 58.2 µM | OVCAR-4 66.1 µM | OVCAR-5 > 100 µM | OVCAR-8 > 100 µM | SK-MEL-2 > 100 µM | SN12C > 100 µM | SNB-75 42.1 µM

CC(c1cccc2ccccc12)/[N+]([O-])=C/c1ccccc1 (centres undefined)
inactive: HCC 2998 > 100 µM | HCT-116 > 100 µM | HOP-62 > 100 µM | IGROV-1 > 100 µM | KM12 > 100 µM | LOX IMVI > 100 µM | Malme-3M > 100 µM | NCI-H23 > 100 µM | OVCAR-3 > 100 µM | OVCAR-5 > 100 µM | OVCAR-8 > 100 µM | SK-MEL-28 > 100 µM | SK-MEL-2 > 100 µM | SNB-75 75 µM

CCC(C(=O)c1ccccc1)C(CCCC(=O)Nc1c(C)cccc1C)N=O (centres undefined)
inactive: HCC 2998 > 100 µM | HCT-116 > 100 µM | HOP-62 > 100 µM | IGROV-1 > 100 µM | KM12 > 100 µM | Malme-3M > 100 µM | NCI-H23 > 100 µM | OVCAR-3 > 100 µM | OVCAR-4 > 100 µM | OVCAR-5 > 100 µM | OVCAR-8 > 100 µM | SK-MEL-28 > 100 µM | SK-MEL-2 > 100 µM | SN12C > 100 µM | SNB-75 > 100 µM

CCCCCCCCNC(=O)SCCCC
inactive: IGROV-1 46.5 µM | KM12 55 µM | LOX IMVI 19.9 µM | Malme-3M 23.1 µM | NCI-H23 38.5 µM | OVCAR-3 49.5 µM | OVCAR-4 36.7 µM | OVCAR-5 37.2 µM | OVCAR-8 33.8 µM | SK-MEL-28 38.2 µM | SK-MEL-2 20.9 µM | SN12C 37.8 µM | SNB-75 26.1 µM

CCOC(=O)/C(=C/c1ccc(C#N)cc1)N(CC)CC
inactive: HCC 2998 > 100 µM | HCT-116 > 100 µM | HOP-62 > 100 µM | IGROV-1 > 100 µM | KM12 > 100 µM | LOX IMVI > 100 µM | Malme-3M > 100 µM | NCI-H23 > 100 µM | OVCAR-4 > 100 µM | OVCAR-5 > 100 µM | OVCAR-8 > 100 µM | SK-MEL-28 > 100 µM | SK-MEL-2 > 100 µM | SN12C > 100 µM | SNB-75 > 100 µM

COC(=O)/C=C/C1C(C(=O)OC)C2(C(=O)OC)CCC1(C(=O)OC)N2 (centres undefined)
inactive: HCC 2998 > 100 µM | HCT-116 > 100 µM | HOP-62 > 100 µM | IGROV-1 > 100 µM | KM12 > 100 µM | LOX IMVI > 100 µM | Malme-3M > 100 µM | NCI-H23 > 100 µM | OVCAR-3 > 100 µM | OVCAR-4 > 100 µM | OVCAR-5 > 100 µM | OVCAR-8 > 100 µM | SK-MEL-2 > 100 µM | SN12C > 100 µM | SNB-75 > 100 µM
